Article PMC4424558, “Antimicrobial and antioxidant flavonoids from the leaves of Oncoba spinosa Forssk. (Salicaceae)” (BMC Complementary and Alternative Medicine, 2015)
In brackets after ≈: the same amount, converted by molar mass. Read-outs that look alike come from different tables or passages of the source.

Experiments:
[1] = tested on: Enterobacter aerogenes ATCC13048; experiment: Broth microdilution MIC/MBC against Enterobacter aerogenes ATCC13048; type: cell-based; details: for MBC / MIC: Klebsiella aerogenes; for MIC: 37°C, 24 h
Experimental: (§1) The studied microorganisms were both reference (from the American Type Culture Collection) and clinical (from Pasteur Institute Paris, France) strains of Enterobacter aerogenes, Escherichia coli, Klebsiella pneumoniae, Candida albicans, and Cryptococcus neoformans. Also, included were two clinical isolates of Candida parapsilosis and Staphylococcus aureus collected from Pasteur Centre (Yaoundé-Cameroon). The bacterial and fungal species were grown at 37°C and maintained on nutrient agar (NA, Conda, Madrid, Spain) and Sabouraud Dextrose Agar (SDA, Conda) slants respectively.
(§2) The inocula of yeasts and bacteria were prepared from overnight cultures by picking numerous colonies and suspending them in sterile saline (NaCl) solution (0.90%). Absorbance was read at 530 nm for yeasts or at 600 nm for bacteria and adjusted with the saline solution to match that of a 0.50 McFarland standard solution. From the prepared microbial solutions, other dilutions with saline solution were prepared to give a final concentration of 10^6 yeast cells/ml and 10^6 CFU/ml for bacteria.
(§3) The antimicrobial activity was investigated by determining the minimum inhibitory concentrations (MICs), minimum bactericidal concentrations (MBCs) and minimum fungicidal concentrations (MFCs).
(§4) MICs were determined by broth micro dilution. Stock solutions of the tested samples were prepared in 10% v/v aqueous dimethylsulfoxide (DMSO) solution (Fisher chemicals, Strasbourg, France) at concentration of 4096 μg/ml. This was two-fold serially diluted in Mueller-Hinton Broth (MHB) for bacteria and Sabouraud Dextrose Broth (SDB) for fungi to obtain a concentration range of 2048 to 0.25 μg/ml. For every experiment, a sterility check (10% aqueous DMSO and medium), negative control (10% aqueous DMSO, medium and inoculum) and positive control (10% aqueous DMSO, medium, inoculum and water-soluble antibiotics) were included. One hundred microliters of each concentration was introduced into a well (96-wells microplate) containing 90 μl of SDB or MHB and 10 μl of inoculum was added to obtain a final concentration range of 4096 to 0.125 μg/ml. The plates were covered with a sterile lid, and incubated on the shaker at 37°C for 24 h (bacteria) and 48 h (yeasts). MICs were assessed visually after the corresponding incubation period and were taken as the lowest sample concentration at which there was no growth or virtually no growth. The assay was repeated thrice.
(§5) The lowest concentration that yielded no growth after the sub-culturing was taken as the MBCs or MFCs. Chloramphenicol (Sigma-Aldrich, Steinheim, Germany) for bacteria and nystatin (Sigma-Aldrich, Steinheim, Germany) for yeasts were used as positive controls.

[2] = tested on: Escherichia coli ATCC8739; experiment: Broth microdilution MIC/MBC against Escherichia coli ATCC8739; type: cell-based; details: for MIC: 37°C, 24 h
Experimental: as §1, §2, §3, §4, §5

[3] = tested on: Klebsiella pneumoniae ATCC11296; experiment: Broth microdilution MIC/MBC against Klebsiella pneumoniae ATCC11296; type: cell-based; details: for MIC: 37°C, 24 h
Experimental: as §1, §2, §3, §4, §5

Staphylococcus aureus = experiment: Broth microdilution MIC/MBC against Staphylococcus aureus; type: cell-based; details: Staphylococcus aureus clinical isolate; for MIC: 37°C, 24 h
Experimental: as §1, §2, §3, §4, §5

bacteria = experiment: Broth microdilution, bacterial strains (panel summary); type: cell-based; details: range over the bacterial strains
Experimental: as §1
as §2, with “bacteria. […]” for “bacteria.”
MICs were determined by broth micro dilution. […] MICs were assessed visually after the corresponding incubation period and were taken as the lowest sample concentration at which there was no growth or virtually no growth. […]

[4] = DPPH free radical scavenging assay; type: biochemical; details: 30 min, room temperature, 517 nm
Experimental: The free radical scavenging activity of the MeOH extract as well as some of its isolated compounds was evaluated according to described methods with slight modifications. Briefly, the test samples, prior dissolved in DMSO (SIGMA) beforehand, were mixed with a 20 mg/l 2,2-diphenyl-1-picryl-hydrazyl (DPPH) methanol solution, to give final concentrations of 10, 50, 100, 500 and 1000 μg/ml. After 30 min at room temperature, the absorbance values were measured at 517 nm and converted into percentage of antioxidant activity. L-ascorbic acid was used as a standard control. The percentage of decolouration of DPPH (%) was calculated as follows: %decolourationofDPPH=Absorbanceofcontrol−Absorbanceoftestsample)×100/Absorbanceofcontrol
The percentage of decolouration of DPPH (%) was plotted against the test sample. Also, the percentage of decolouration of DPPH was converted in probits. The probit values were plotted against the logarithmic values of concentrations of the test samples and a linear regression curve was established in order to calculate the EC50 (μg/ml), which is the amount of sample necessary to decrease by 50% the absorbance of DPPH [11]. All the analyses were carried out in triplicate.

Candida parapsilosis = experiment: Broth microdilution MIC/MFC against Candida parapsilosis; type: cell-based; details: Candida parapsilosis clinical isolate; for MIC: 37°C, 48 h
Experimental: as §1, §2, §3, §4, §5

[5] = tested on: Candida albicans ATCC 9002; experiment: Broth microdilution MIC/MFC against Candida albicans ATCC 9002; type: cell-based; details: for MIC: 48 h
Experimental: as §1, §2, §3, §4, §5

[6] = tested on: Cryptococcus neoformans IP 90526; experiment: Broth microdilution MIC/MFC against Cryptococcus neoformans IP 90526; type: cell-based; details: for MIC: 48 h
Experimental: as §1, §2, §3, §4, §5

fungi = experiment: Broth microdilution, fungal strains (panel summary); type: cell-based; details: for MIC (range over fungi): range over the fungal strains
Experimental: as §1, §2, §3
as §4, with “One hundred microliters of each concentration was introduced into a well (96-wells microplate) containing 90 μl of SDB or MHB and 10 μl of inoculum was added to obtain a final concentration range of 4096 to 0.125 μg/ml. The plates were covered with a sterile lid, and incubated on the shaker at 37°C for 24 h (bacteria) and 48 h (yeasts).” left out, “The assay was repeated thrice.” left out

[7] = tested on: bacterial and fungal species; experiment: Broth microdilution, all studied microorganisms (panel summary); type: cell-based; details: for studied microorganisms on which inhibitory effects were noted: out of 7 studied microorganisms
Experimental: as §1, §2, §3, §4, §5

[8] = Trolox equivalent antioxidant capacity (TEAC) assay; type: biochemical; details: ABTS/laccase, 420 nm, 230 s; 20 μg/ml isolated compounds, 10-400 μg/ml MeOH extract; gallic acid equivalents
Experimental: The TEAC test was done as previously described with slight modifications. In a quartz cuvette, to 950 μl acetate buffer (pH = 5.0, 100 mM), the following were added: 20 μl laccase (1 mM stock solution), 20 μl test sample, 10 μl ABTS (2,2′-azinobis(3-ethylbenzothiazoline-6-sulfonic acid)) (74 mM stock solution). The laccase were purified from Sclerotinia sclerotiorum according to the protocol described. The sample concentrations in the assay mixture were 400, 200, 100, 10 μg/ml for the MeOH extract and 20 μg/ml for the isolated compounds. The content of the generated ABTS^●+ radical was measured at 420 nm after 230 s reaction time and was converted to gallic acid equivalents by the use of a calibration curve (Pearson’s correlation coefficient: r = 0.998) constructed with 0, 4, 10, 14, 28, 56, 84 μM gallic acid standards rather than Trolox. Experiments were done in triplicate.

[9] = Lodderomyces parapsilosis, read-out: MIC
[10] = Lodderomyces parapsilosis, read-out: MFC

Row | Structure (SMILES) | MBC/MIC [1] | MBC [1] [µg/mL] | MIC [1] [µg/mL] | MBC [2] [µg/mL] | MBC/MIC [2] | MIC [2] [µg/mL] | MBC [3] [µg/mL] | MBC/MIC [3] | MIC [3] [µg/mL] | MBC (Staphylococcus aureus) [µg/mL] | MBC/MIC (Staphylococcus aureus) | MIC (Staphylococcus aureus) [µg/mL] | EC50, concentration scavenging 50% of DPPH radical [4] [µg/mL] | MFC/MIC (Candida parapsilosis) | MFC/MIC [5] | MFC/MIC [6] | MIC (Candida parapsilosis; [9]) [µg/mL] | MIC ([5]; ATCC9002, 37°C, read-out: MIC) [µg/mL] | MIC ([6]; IP90526, 37°C, read-out: MIC) [µg/mL] | studied microorganisms on which inhibitory effects were noted [7] | other results
1 | O=C(N[C@H](CO)[C@H](O)c1ccc([N+](=O)[O-])cc1)C(Cl)Cl [chloramphenicol, Chloramphenicol, reference compound] | 1 | 64 (≈ 198 µM) | 64 (≈ 198 µM) | 64 (≈ 198 µM) | 1 | 64 (≈ 198 µM) | 16 (≈ 49.5 µM) | 1 | 16 (≈ 49.5 µM) | 64 (≈ 198 µM) | 1 | 64 (≈ 198 µM) |  |  |  |  |  |  |  |  | MIC (range over bacteria) (bacteria): 16 to 64 µg/mL
2 | O=C1O[C@H]([C@@H](O)CO)C(O)=C1O [vitamin C, L-ascorbic acid, reference compound] |  |  |  |  |  |  |  |  |  |  |  |  | 4.72 |  |  |  |  |  |  |  | 
3 | C[C@@H]1[C@H](O)[C@@H](C)/C=C/C=C/CC/C=C/C=C/C=C/C=C/C(O[C@H]2O[C@H](C)[C@@H](O)[C@H](N)[C@@H]2O)CC2O[C@](O)(CC(O)C(O)CCC(O)CC(O)CC(O)CC(=O)O[C@H]1C)CC(O)C2C(=O)O (stereo partly drawn) [nystatin, reference compound] |  |  |  |  |  |  |  |  |  |  |  |  |  | 1 | 1 | 2 |  |  |  |  | MFC (Candida parapsilosis): 256 µg/mL (≈ 276 µM); MIC (Candida parapsilosis): 256 µg/mL (≈ 276 µM); MFC [5]: 128 µg/mL (≈ 138 µM); MIC ([5]; 37°C): 128 µg/mL (≈ 138 µM); MFC [6]: 256 µg/mL (≈ 276 µM); MIC ([6]; 37°C): 128 µg/mL (≈ 138 µM); MIC (range over fungi) (fungi): 128 to 256 µg/mL
4 | O=c1c(O[C@@H]2O[C@H](CO)[C@H](O)[C@H](O)[C@H]2O)c(-c2ccc(O)c(O)c2)oc2cc(O)cc(O)c12 [Compound 4, quercetin 3-O-β-D-galactopyranoside] | 2 | 64 (≈ 138 µM) | 32 (≈ 68.9 µM) | 128 (≈ 276 µM) | 1 | 128 (≈ 276 µM) | 64 (≈ 138 µM) | 2 | 32 (≈ 68.9 µM) | 128 (≈ 276 µM) | 1 | 128 (≈ 276 µM) | 13.44 | 2 | 1 | 1 | 128 (≈ 276 µM) | 256 (≈ 551 µM) | 128 (≈ 276 µM) | 7/7 | MFC (Candida parapsilosis; [10]): 256 µg/mL (≈ 551 µM); MFC ([5]; ATCC9002, read-out: MFC): 256 µg/mL (≈ 551 µM); MFC ([6]; IP90526, read-out: MFC): 128 µg/mL (≈ 276 µM); activity against all the microbial strains (in words) [7]: active against all the microbial strains; Gallic acid equivalent antioxidant capacity (TEAC) [8]: 72.95 µg/mL
5 | C[C@@H]1O[C@@H](OC[C@H]2O[C@@H](Oc3c(-c4ccc(O)c(O)c4)oc4cc(O)cc(O)c4c3=O)[C@H](O)[C@@H](O)[C@@H]2O)[C@H](O)[C@H](O)[C@H]1O [Compound 5, quercetin 3-O-α-L-rhamnopyranosyl (1 → 6) β-D-glucopyranoside] | 1 | 32 (≈ 52.4 µM) | 32 (≈ 52.4 µM) | 64 (≈ 105 µM) | 1 | 64 (≈ 105 µM) | 16 (≈ 26.2 µM) | 2 | 8 (≈ 13.1 µM) | 128 (≈ 210 µM) | 2 | 64 (≈ 105 µM) | 9.63 |  |  |  | > 256 | > 256 | > 256 | 4/7 | MIC (range over bacteria) (bacteria): 8 to 64 µg/mL; activity against fungal/yeast strains (in words) (fungi; fungal strains): inactive; Gallic acid equivalent antioxidant capacity (TEAC) [8]: 78.35 µg/mL
6 | O=C(O)[C@H]1O[C@@H](Oc2cc(O)c3c(=O)cc(-c4ccc(O)cc4)oc3c2)[C@H](O)[C@@H](O)[C@@H]1O [Compound 3, apigenin-7-O-β-D-glucuronopyranoside] | 1 | 128 (≈ 287 µM) | 128 (≈ 287 µM) |  |  | > 256 | 256 (≈ 574 µM) | 1 | 256 (≈ 574 µM) |  |  | > 256 | 29.16 | 2 |  | 1 | 64 (≈ 143 µM) | > 256 | 128 (≈ 287 µM) | 4/7 | MFC (Candida parapsilosis; [10]): 128 µg/mL (≈ 287 µM); MFC ([6]; IP90526, read-out: MFC): 128 µg/mL (≈ 287 µM)
7 | O=c1c(O)c(-c2ccc(O)c(O)c2)oc2cc(O)cc(O)c12 [Compound 2, quercetin] | 1 | 64 (≈ 212 µM) | 64 (≈ 212 µM) | 256 (≈ 847 µM) | 2 | 128 (≈ 424 µM) | 64 (≈ 212 µM) | 1 | 64 (≈ 212 µM) | > 256 |  | 256 (≈ 847 µM) | 5.08 | 1 | 1 | 1 | 64 (≈ 212 µM) | 128 (≈ 424 µM) | 64 (≈ 212 µM) | 7/7 | MFC (Candida parapsilosis; [10]): 64 µg/mL (≈ 212 µM); MFC ([5]; ATCC9002, read-out: MFC): 128 µg/mL (≈ 424 µM); MFC ([6]; IP90526, read-out: MFC): 64 µg/mL (≈ 212 µM); MIC (range over fungi) (fungi): 64 to 128 µg/mL; activity against all the microbial strains (in words) [7]: active against all the microbial strains; Gallic acid equivalent antioxidant capacity (TEAC) [8]: 89.86 µg/mL
